Molecular target: T1, NFATc1 (Mus musculus, UniProt O88942)
T1 construct: endogenous protein in RAW264.7 cell lysate
T1 sequence (O88942 1-717): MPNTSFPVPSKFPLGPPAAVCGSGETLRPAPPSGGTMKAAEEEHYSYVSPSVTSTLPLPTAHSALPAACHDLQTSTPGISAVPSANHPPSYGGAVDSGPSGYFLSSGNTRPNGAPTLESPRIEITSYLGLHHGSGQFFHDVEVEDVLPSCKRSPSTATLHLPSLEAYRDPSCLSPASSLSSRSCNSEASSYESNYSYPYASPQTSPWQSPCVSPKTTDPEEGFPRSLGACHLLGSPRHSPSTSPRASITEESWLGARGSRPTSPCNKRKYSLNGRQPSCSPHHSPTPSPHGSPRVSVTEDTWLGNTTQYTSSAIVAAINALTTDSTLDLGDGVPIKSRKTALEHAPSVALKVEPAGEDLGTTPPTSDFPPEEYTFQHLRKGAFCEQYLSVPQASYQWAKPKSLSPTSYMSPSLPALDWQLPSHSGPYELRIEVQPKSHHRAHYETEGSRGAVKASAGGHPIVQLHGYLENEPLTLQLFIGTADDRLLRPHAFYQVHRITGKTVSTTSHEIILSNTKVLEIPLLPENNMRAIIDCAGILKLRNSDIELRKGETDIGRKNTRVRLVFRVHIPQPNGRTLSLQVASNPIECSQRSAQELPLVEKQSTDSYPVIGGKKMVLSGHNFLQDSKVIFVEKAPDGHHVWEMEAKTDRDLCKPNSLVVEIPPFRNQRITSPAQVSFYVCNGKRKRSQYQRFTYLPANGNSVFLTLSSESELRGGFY
Experiment: biotin pull-down on streptavidin beads, western blot
Assay type: biochemical
Settings: labelled compound (biotin conjugate of rhein, linker only drawn); biotin alone as control; RAW264.7 lysate, 4 °C bead loading

For `O=C1N[C@H]2[C@H](CS[C@H]2CCCCC(=O)Oc2cccc3c2C(=O)c2c(O)cc(C(=O)O)cc2C3=O)N1` [Bio-Rhein, Biotinylated-Rhein], which “biotin pull-down on streptavidin beads, western blot” value is on record?
The value was “The results of western immunoblotting indicated the direct interaction between rhein and NFATc1”.
